On to `O=C(O)c1ccc(NCCC(c2ccc(Cl)cc2)c2ccc(Cl)cc2)cc1`, for which the melting point – broadly, the temperature, or range, at which the solid turns liquid – lay within 213 to 215 °C.

With `CCCC[C@H]1[C@@H](O)CC[C@@]2(C)CC[C@@H]3C[C@]12OC3(C)C`, the melting point is 47 to 48 °C.

Turning to `O=C1Cc2c([nH]c3ccc(Br)cc23)-c2ccccc2N1`, the melting point was over 300 °C.

Take `COc1ccc(C2Sc3c(ccc4ccccc34)N(CCN(C)C)C(=O)C2OC(=O)c2cccnc2)cc1` (centres undefined): the melting point was in the range of 144 to 145 °C.

Compound `O=C1CCC(N2Cc3c(OCc4ccc(CN5Cc6ccccc6C5)cc4)cccc3C2=O)C(=O)N1` (centres undefined) had a melting point of 153 to 155 °C.

The compound `CC(=O)Nc1cc(C)c2c(C)c(C)[nH]c2c1` yielded a melting point of 255 °C.

As for `Cn1cc2c(C3C(=O)Nc4ccc(Br)cc43)nc(NCCc3cccnc3)nc2n1` (centres undefined), the melting point was 314 to 317 °C.

For the compound `CC(=O)NC1Cc2ccc(C(=O)CCl)cc2C1` (centres undefined), the melting point lay within 173 to 174 °C.

With `COc1ccc(-c2cc(=O)c3c(O)cc(O)c(-c4cc(-c5cc(=O)c6c(O)cc(OC)cc6o5)ccc4OC)c3o2)cc1`, the melting point was in the range of 295 to 298 °C.

For `O=C(Nc1ccccc1)N1CCc2[nH]c3c(cnc4cc(Cl)ccc43)c2C1`, the melting point is over 260 °C.

The compound `CC(C)(C)OC(=O)Cn1c(=O)c(=O)[nH]c2cc(Cl)c(Cl)cc21` came in with a melting point of over 300 °C.

In turn, `Cc1cc(N(C)C)ccc1C1(N(c2ccc(N(C)C)cc2)c2ccc(N(C)C)cc2)OC(=O)c2ccccc21` (centres undefined) came in with a melting point of 97 to 113 °C.

The compound `COc1ccc(C#Cc2ccc(C(=O)O)s2)cc1C12CC3CC(CC(C3)C1)C2` came in with a melting point of 244 to 245 °C.

The compound `O=C(c1[nH]c2ccc(F)cc2c1Sc1ccccn1)N1CCCC1` had a melting point of 204 to 206 °C.

Compound `O=C1Cc2ccccc2N1CCCl` showed a melting point of 74 °C.

As to `CC(=O)OC1CCC2(C)C(CCC3C4CCC(C(C)=O)C4(C)CC4OC432)C1` (centres undefined), the melting point was 133 to 136 °C.

Consider `CN1CCC(C2=CC(=O)CCC2)C1=O` (centres undefined), for which the melting point was in the range of 42 to 46 °C.

`COCc1c(C(=O)OC(CO)CO)ncc2[nH]c3ccc(OCc4ccccc4)cc3c12`: the melting point lay in the range of 190 to 192 °C.

For `c1cc(-n2ccnc2)nc(-n2cnc3cc(-c4ccoc4)ccc32)c1`, the melting point is 170 to 173 °C.

`CCC(C)N(C)C(=O)c1cc(-c2ccccc2F)c2ccccc2n1` (centres undefined) returned a melting point of 86 °C.

Compound `O=C1N=C(N2CCOCC2)SC1=Cc1cccc(-c2ccc(O)c(F)c2)c1` registered a melting point of 233 to 235 °C.

Turning to `CC(C)C(=O)N[C@H]1CC[C@H](CCN2CCN(c3nccc4c3OCC4)CC2)CC1`, the melting point was found to be 204 °C.

In the case of `CC(C)(C)C(=O)OCN1C(=O)NC2(C1=O)C(=O)N(Cc1ccc(Br)cc1F)c1ccccc12` (centres undefined), the melting point is 220 to 222 °C.

`CCCN1CC(C)CC2c3cccc4[nH]c(SC)c(c34)CC21` (centres undefined) came in with a melting point of 216 to 219 °C.

In turn, `CC(C)(C)c1ccc(S(=O)(=O)N2c3ccccc3C[C@H]2C(=O)NCc2ccc(CCC(=O)O)cc2)cc1` displayed a melting point of 80 to 85 °C.

For the compound `COC(=O)c1nc(CN=[N+]=[N-])n2c1CN=C(c1ccccc1Cl)c1cc(Cl)ccc1-2`, the melting point is 187 to 189 °C.

`O=C(O)COc1cccc2c1CCc1sc(SCCCC(c3ccccc3)c3ccccc3)nc1-2` came in with a melting point of 136 to 138 °C.

As to `CC(=O)Oc1ccc(C(=O)OC2C=C(C)C(=O)CC(C)(C)C2O)cc1` (centres undefined), the melting point fell in the range of 132 to 133 °C.

The compound `O=C(C=Cc1ccccn1)N1CCc2c([nH]c3ccccc23)C1c1ccc2c(c1)OCO2` (centres undefined) had a melting point of 135 to 141 °C.

For the compound `O=C1Nc2cccc(Cl)c2C(=O)N2CC=C[C@@H]12`, the melting point is 250 °C.

On to `CCCC=CCOc1ccc(C(C)(C)CC(C)(C)C)cc1-n1nc2ccccc2n1`, for which the melting point fell in the range of 80 to 81 °C.

Consider `CCOC(=O)c1[nH]c2cc(Cl)c(Cl)cc2c1-c1ccc(Cl)cc1Cl`, for which the melting point is 160 to 161 °C.

For `Cc1ccc(C(=O)NC(Cc2cccc(Br)c2)C(=O)O)cc1` (centres undefined), the melting point lay within 196 to 197 °C.

For the compound `Cc1c(C(=O)O)sc2ccc(Br)cc12`, the melting point was over 300 °C.

The compound `COc1ccc(C2=NN(c3ccc(CC(=O)N4CCOCC4)cc3)C(=O)C(C)(C)C2)cc1OC` had a melting point of 165 to 167 °C.

With `Cc1oc(-c2ccccc2)nc1CN(C)Cc1ccc(C[C@@H](C(=O)O)n2cccc2)cc1`, the melting point lay in the range of 133 to 135 °C.

For the compound `CC(C)(C)OC(=O)CNC(=O)OCC1c2c(c3ccccc3c3ccccc23)-c2c1c1ccccc1c1ccccc21`, the melting point lay within 170 to 171 °C.

For the compound `COc1ccc(CC(OC)C(=O)O)cc1NC(=O)Cc1ccc(C(F)(F)F)cc1` (centres undefined), the melting point fell in the range of 124 to 125 °C.

In turn, `Cc1c(C2=NOC(CN3CCC(Cc4ccc(F)cc4)CC3)C2)cc2oc(=O)[nH]c2c1Cl` (centres undefined) came in with a melting point of 131 to 132 °C.

As to `NC(c1cc(-c2ccc(F)cc2)c(-c2ccc(F)cc2)[nH]1)(C(F)(F)F)C(F)(F)F`, the melting point was 88 to 89 °C.

As to `CN1CCN(c2cccc3c2C[C@H](NC(=O)c2ccc(C(F)(F)F)cc2C(F)(F)F)CO3)CC1`, the melting point was in the range of 202 to 203 °C.

Compound `CCOC(=O)c1cc2c3n(ccc-2n1)CC(C=O)=N3` registered a melting point of 82 to 84 °C.

On to `COc1ccc(CCNC(=O)C(=O)Nc2ccncc2)cc1OC1CCCC1`, for which the melting point is 182 °C.

The compound `N#Cc1ccc(C(=O)c2ccccc2)s1` gave a melting point of 85 to 89 °C.

Consider `CC(=O)NC[C@H]1CN(c2ccc(N3CCC4(CCO4)CC3)c(F)c2)C(=O)O1`, for which the melting point was 164 to 166 °C.

The compound `O=C(c1ccc(Cl)cc1)c1ccc(CBr)cc1` returned a melting point of 103 to 104 °C.

Compound `CC(C)c1cc(C(C)C)c(CCC(=O)O)c(C(C)C)c1` had a melting point of 194 to 196 °C.

Regarding `CC(C=O)(CCc1c[nH]c2ccccc12)NC(=O)OC1C2CC3CC(C2)CC1C3` (centres undefined), the melting point lay in the range of 178 to 179 °C.

The compound `Cc1nc(N2C[C@@H](Cc3ccccc3)NC2=O)sc1C(=O)NCc1ccccc1` came in with a melting point of 212 to 214 °C.

Take `CCOC(=O)C(=O)CC(=O)c1cn(Cc2ccncc2)c2ccccc2c1=O`: the melting point was in the range of 168 to 169 °C.

On to `COc1cc(-c2ccc(NCc3ccccc3)nn2)ccc1OC(F)F`, for which the melting point stood at 136 °C.

As to `CCCCCCCCC1C(=O)NC(=O)N1CCCCCCC(=O)OCC` (centres undefined), the melting point is 68 to 70 °C.

For `CC(=O)Nc1ccccc1NS(=O)(=O)c1cc(C(=O)O)cc([N+](=O)[O-])c1Oc1ccccc1`, the melting point lay in the range of 224 to 226 °C.

As to `CSc1ccc(N2CCN(c3c(C)c(C)c4c(c3C)CC(C)(C)O4)CC2)cc1`, the melting point was in the range of 211 to 213 °C.

For the compound `CC12CCC3C(CCC4=C(N)C(=O)CCC43C)C1CCC2=O` (centres undefined), the melting point lay in the range of 186 to 188 °C.

In turn, `CN1CCN(c2ccccc2OCc2cc(CCC(=O)O)c3c(c2)CC(NS(=O)(=O)c2ccc(Cl)cc2)CC3)CC1` (centres undefined) gave a melting point of 122 °C.

The compound `CN(C)S(=O)(=O)c1cc(S(=O)(=O)N(C)C)c(C(Cl)=C(Cl)Cl)cc1N` gave a melting point of 238 to 239 °C.

`Cc1ccc(C2=Nc3ccccc3N=C(N3CCN(C)CC3)C2)cc1` gave a melting point of 169 to 170 °C.

Regarding `CC(=O)Nc1ccc(C(=O)NC2=Nc3cc(N4CCOCC4)ccc3C3=NCCN23)cn1`, the melting point was 228 °C.

`COc1cc2c(cc1O[Si](C)(C)C(C)(C)C)CN(C(=O)OC(C)(C)C)CC2` came in with a melting point of 46 to 49 °C.

`COC(=O)C(C)=C(C(=O)OC)C1C=CC=CC1(C)C(C(=O)OC)=C(C)C(=O)OC` (centres undefined) showed a melting point of 90 °C.

With `COc1cc(Nc2c(C#N)cnc3cc(C#CCN(C)C)sc23)c(Cl)cc1Cl`, the melting point lay within 164 to 166 °C.

For `CCCCOc1cc(CCS(=O)(=O)NC(=O)OC(C)C)n(Cc2ccc(Cl)cc2Cl)n1`, the melting point lay within 120 to 121 °C.

`CC(C)(C)OC(=O)NCc1cc(N=C(N)c2cccs2)ccc1N1CCN(C(=O)CCCCC2CCSS2)CC1` (centres undefined) had a melting point of 162 to 164 °C.

As to `CC(C)n1nc(-c2sc(NCc3ccccc3)nc2-c2ccccc2)ccc1=O`, the melting point is 157 to 158 °C.

`CCC(O)CN1CCN(C2Cc3ccc(F)cc3Sc3ccc(N)cc32)CC1` (centres undefined): the melting point fell in the range of 184 to 186 °C.

As to `CN1CC=C(c2cccc3ccc(O)cc23)CC1`, the melting point lay within 182 to 184 °C.

Take `O=C(NC1CCC1)c1cc([N+](=O)[O-])[nH]n1`: the melting point was 240 °C.

The compound `CCSCCn1c(=N)sc2cc(C(F)(F)C(F)(F)F)ccc21` had a melting point of under 50 °C.

With `Nc1nnc(-c2ccccc2Nc2cccc(C(F)(F)F)c2)o1`, the melting point lay within 185 to 187 °C.

Regarding `CC(C)CCN1C(=O)C(NC(=O)Oc2cccc(N(C)C)c2)C(=O)N(c2ccccc2)c2cc(Cl)c(Cl)cc21` (centres undefined), the melting point was in the range of 163 to 164 °C.

Turning to `COc1nc(OC)c(C(C)C)c(C(=O)c2cc(C)cc(Br)c2)n1`, the melting point was in the range of 122 to 123 °C.

Regarding `CCCCNc1c(C)cccc1C`, the melting point was 124 to 131 °C.

With `Nc1sc2c(c1C(=O)c1cccs1)CCCC2`, the melting point was 115 to 118 °C.

On to `COc1ccc(Oc2ccc(C(=O)NC(C(=O)O)C(C)C)cc2)cc1` (centres undefined), for which the melting point was 156 °C.

On to `CC(C)C(=O)NC1c2cc3nonc3cc2OC(C)(C)C1O` (centres undefined), for which the melting point was in the range of 194 to 196 °C.

`COc1cc(C(=O)C(=O)c2ccccc2)c(OC)cc1C(=O)C(=O)c1ccccc1`: the melting point is 209 to 211 °C.

The compound `CC(C)(OCc1nn(C(c2ccccc2)(c2ccccc2)c2ccccc2)c2ccccc12)C(=O)O` returned a melting point of 179 to 180 °C.

With `Cc1cc(SC2=C(O)CC(CCc3cccc(O)c3)(CCc3cccc(O)c3)OC2=O)c(C(C)(C)C)cc1CO`, the melting point lay in the range of 92 to 94 °C.

Turning to `CON1C(=O)CC2(CCN(CNC(=O)c3ccccc3O)CC2)C1=O`, the melting point was in the range of 96 to 99 °C.

`CN[C@@H](CC(C)C)C(=O)N[C@@H](Cc1ccccc1)C(N)=O` yielded a melting point of 136 to 138 °C.

For `O=c1cc(NCCN2CCN(c3cccc4c3OCCO4)CC2)cn[nH]1`, the melting point was in the range of 244 to 246 °C.

The compound `O=C1C(=O)N(Cc2ccc(C(F)(F)F)o2)c2cccc(Cl)c21` had a melting point of 148 to 150 °C.

`Cn1ncnc1COc1nn2c(C3CC3)nncc2c1-c1ccccc1F` displayed a melting point of 97 to 99 °C.
